Laboratory results reported in patent US20080261994A1, “CYCLOPROPANE COMPOUNDS AND PHARMACEUTICAL USE THEREOF” (Japan Tobacco Inc., priority 2003, published 2008).
Like-named read-outs stand apart in the source and are kept apart here.

Key:
Format in all cases: biochemical
[1] = target: T1, Recombinant Human MMP-13 (Homo sapiens, UniProt P45452); assay: MMP-13 inhibitory activity (MMP-13 specific fluorescent substrate with quencher)
T1 construct: purchased R&D systems 511-MM
Method in brief: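 Recombinant human MMP-13 with test compound, reaction started with quenched fluorogenic peptide 7-MCA-Pro-CHA-Gly-NVal-His-Ala-DPA in Tris-HCl buffer, 1 h at 25 °C, stopped with acetic acid. Fluorescence at Ex 325/Em 405 nm; % inhibition versus enzyme-free and inhibitor-free wells, reported as IC50 (μM).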

[2] = target: T2, aggrecanase-1 (Homo sapiens, UniProt O75173); assay: Aggrecanase-1 inhibitory action (Particle Assay, GAG release from aggrecan-containing polyacrylamide particles)
T2 sequence (O75173 213-837): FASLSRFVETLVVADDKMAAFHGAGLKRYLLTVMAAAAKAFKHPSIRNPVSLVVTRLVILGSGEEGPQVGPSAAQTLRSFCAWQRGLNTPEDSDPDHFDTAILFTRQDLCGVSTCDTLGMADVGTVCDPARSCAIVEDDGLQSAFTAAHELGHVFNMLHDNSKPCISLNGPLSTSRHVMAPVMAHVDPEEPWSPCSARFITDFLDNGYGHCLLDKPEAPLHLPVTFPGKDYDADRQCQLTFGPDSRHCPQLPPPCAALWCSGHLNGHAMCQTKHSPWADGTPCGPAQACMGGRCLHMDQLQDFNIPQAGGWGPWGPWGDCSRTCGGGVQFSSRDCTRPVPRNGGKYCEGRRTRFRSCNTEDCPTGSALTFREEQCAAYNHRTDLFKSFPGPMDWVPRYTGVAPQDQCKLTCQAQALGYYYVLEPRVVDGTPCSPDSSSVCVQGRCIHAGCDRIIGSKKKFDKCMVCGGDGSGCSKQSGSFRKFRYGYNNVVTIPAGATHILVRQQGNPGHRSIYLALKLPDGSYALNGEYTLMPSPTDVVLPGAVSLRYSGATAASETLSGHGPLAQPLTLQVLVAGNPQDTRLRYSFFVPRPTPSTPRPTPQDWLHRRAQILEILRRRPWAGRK
Method in brief: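 Enzyme and compound incubated with aggrecan-containing polyacrylamide particles in Tris-HCl buffer at 37° C for 15 h. Released GAG in supernatant measured with 1,9-dimethylmethylene blue at 595 nm against chondroitin sulfate standard; % inhibition from enzyme-free and inhibitor-free wells, reported as TC50 (μM).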

[3] = target: T3, MMP-1 (Homo sapiens, UniProt P03956); assay: MMP-1 inhibitory action (Type I collagen Activity Measurement kit, FITC-labeled collagen type I)
T3 sequence (P03956 100-469): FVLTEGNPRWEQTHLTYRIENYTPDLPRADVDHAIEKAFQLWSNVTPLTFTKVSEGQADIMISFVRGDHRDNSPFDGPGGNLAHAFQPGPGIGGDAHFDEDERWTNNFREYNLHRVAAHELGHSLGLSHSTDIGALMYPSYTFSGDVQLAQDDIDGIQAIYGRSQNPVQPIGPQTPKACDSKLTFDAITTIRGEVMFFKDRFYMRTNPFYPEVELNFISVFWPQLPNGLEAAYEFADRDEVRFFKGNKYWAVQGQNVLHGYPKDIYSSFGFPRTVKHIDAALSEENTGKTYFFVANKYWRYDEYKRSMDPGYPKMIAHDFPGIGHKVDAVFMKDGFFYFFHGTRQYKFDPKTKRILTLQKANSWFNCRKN

[4] = Recombinant Human MMP-13, fluorescent substrate, 25° C. for 1 h, read-out: IC50 MMP13 (Experimental Example 3)
[5] = aggrecanase-1 inhibitory action, read-out: IC50 AG1 (Experimental Example 1)
[6] = MMP-1 inhibitory action, FITC-labeled collagen type I, 37° C. for 3 hr, read-out: IC50 MMP1 (Experimental Example 2)
[7] = Experimental Example 3, read-out: IC50 MMP13
[8] = Experimental Example 1, read-out: IC50 AG1
[9] = Experimental Example 2, read-out: IC50 MMP1

| Structure (SMILES) | IC50 [1, 4] [nM] | IC50 [2, 5] [nM] | IC50 [3, 6] [nM] | IC50 [1, 7] [nM] | IC50 [2, 8] [nM] | IC50 [3, 9] [nM] |
| --- | --- | --- | --- | --- | --- | --- |
| O=C(Nc1cccc(C2CC2(NS(=O)(=O)c2ccc(-c3ccc(Cl)cc3)s2)C(=O)O)c1)N1CCOCC1 (stereo not drawn) [Example 2-251] | < 1000 | < 1000 | ≥ 10000 | – | – | – |
| C[C@]1(c2ccccc2)C[C@@]1(NS(=O)(=O)c1ccc(-c2ncc(Br)cn2)s1)C(=O)O [Example 2-414] | – | – | – | < 1000 | < 1000 | ≥ 1000 |
| O=C(O)[C@]1(NS(=O)(=O)/C=C/c2cccc(C(F)(F)F)c2)C[C@@H]1c1ccccc1 [Example 2-162] | ≥ 10000 | ≥ 10000 | ≥ 10000 | – | – | – |
| CC1(C)C(c2ccccc2)C1(NS(=O)(=O)c1ccc(-c2ccc(Cl)cc2)s1)C(=O)O (stereo not drawn) [Example 2-274] | – | – | – | ≥ 1000 | < 100 | ≥ 10000 |
| CC1[C@H](c2ccccc2)[C@]1(NS(=O)(=O)c1ccc(-c2cn3ccccc3n2)s1)C(=O)O (stereo partly drawn) [Example 2-570] | – | – | – | < 100 | < 1000 | ≥ 1000 |
| O=C(Cc1cccc(C2CC2(NS(=O)(=O)c2ccc(-c3cc(C(F)(F)F)on3)s2)C(=O)O)c1)N1CCOCC1 (stereo not drawn) [Example 2-220] | < 100 | < 100 | ≥ 1000 | – | – | – |
| COc1ccccc1C1(C)CC1(NS(=O)(=O)c1ccc(-c2cc(C(F)(F)F)on2)s1)C(=O)O (stereo not drawn) [Example 2-613] | – | – | – | ≥ 1000 | < 100 | < 1000 |
| O=C(O)C1(NS(=O)(=O)c2ccc(-c3ccc4c(c3)Cc3ccccc3-4)cc2)CC1c1ccccc1 (stereo not drawn) [Example 1-54] | < 1000 | < 1000 | ≥ 1000 | – | – | – |
| O=C(O)[C@]1(NS(=O)(=O)c2ccc3c(c2)Cc2cc(Br)ccc2-3)C[C@@H]1c1ccccc1 [Example 1-91] | < 100 | < 100 | ≥ 1000 | – | – | – |
| O=C(O)C1(NS(=O)(=O)N2CCN(c3ccc(F)cc3)CC2)CC1c1ccccc1 (stereo not drawn) [Example 2-67] | < 1000 | ≥ 10000 | ≥ 10000 | – | – | – |
| O=C(Nc1ccccc1)c1ccc(S(=O)(=O)N[C@@]2(C(=O)O)C[C@@H]2c2ccccc2)cc1 [Example 2-474] | – | – | – | ≥ 1000 | ≥ 1000 | ≥ 10000 |
| CN(C)C(=O)Cc1ccc([C@@H]2C[C@]2(NS(=O)(=O)c2ccc(-c3cc(C(F)(F)F)on3)s2)C(=O)O)cc1 [Example 2-290] | – | – | – | < 100 | < 100 | < 1000 |
| CC1[C@H](c2ccccc2)[C@]1(NS(=O)(=O)N1CCC(Oc2cccc(Cl)c2)C1)C(=O)O (stereo partly drawn) [Example 2-501] | – | – | – | ≥ 1000 | ≥ 1000 | ≥ 1000 |
| O=C(c1ccc(Cl)cc1)N1CCN(S(=O)(=O)NC2(C(=O)O)CC2c2ccccc2)CC1 (stereo not drawn) [Example 2-159] | ≥ 10000 | ≥ 10000 | ≥ 10000 | – | – | – |
| O=C(O)[C@]1(NS(=O)(=O)c2ccc(-c3cc(C(F)(F)F)no3)s2)C[C@@H]1c1ccccc1 [Example 2-171] | < 1000 | < 1000 | ≥ 10000 | – | – | – |
| Nc1cccc(C2CC2(NS(=O)(=O)c2ccc(-c3cc(C(F)(F)F)on3)s2)C(=O)O)c1 (stereo not drawn) [Example 2-201] | < 100 | < 1000 | ≥ 10000 | – | – | – |
| O=C(O)[C@@]1(NS(=O)(=O)c2ccc3c(c2)Cc2cc(F)ccc2-3)C[C@H]1c1ccccc1 [Example 2-244] | < 1000 | < 1000 | ≥ 10000 | – | – | – |
| CN1CC=C(c2ccc(S(=O)(=O)N[C@@]3(C(=O)O)C[C@@H]3c3ccccc3)s2)CC1 [Example 2-172] | ≥ 1000 | ≥ 10000 | ≥ 10000 | – | – | – |
| Cc1nc2cc(N3CCN(S(=O)(=O)N[C@@]4(C(=O)O)C(C)[C@@H]4c4ccccc4)CC3)ccc2s1 (stereo partly drawn) [Example 2-483] | – | – | – | ≥ 1000 | ≥ 1000 | ≥ 10000 |
| COCCN(C)C(=O)c1ccccc1C1CC1(NS(=O)(=O)c1ccc(-c2ccc(Cl)cc2)s1)C(=O)O (stereo not drawn) [Example 2-71] | < 1000 | < 100 | ≥ 10000 | – | – | – |
| COC(=O)CCc1cccc(C2CC2(NS(=O)(=O)c2ccc(-c3ccc(Cl)cc3)s2)C(=O)O)c1 (stereo not drawn) [Example 2-208] | < 100 | < 100 | ≥ 1000 | – | – | – |
| CCC1(c2ccccc2)CC1(NS(=O)(=O)c1ccc(-c2ccc(Cl)cc2)s1)C(=O)O (stereo not drawn) [Example 2-129] | < 1000 | < 1000 | ≥ 10000 | – | – | – |
| O=C(O)C1(NS(=O)(=O)c2ccc(-c3cc(C(F)(F)F)on3)s2)C2CCCc3ccccc3C21 (stereo not drawn) [Example 2-305] | – | – | – | < 100 | < 100 | ≥ 1000 |
| O=C(O)C1(NS(=O)(=O)c2ccc(-c3cc(C(F)(F)F)on3)s2)C2CCC(O)c3ccccc3C21 (stereo not drawn) [Example 2-437] | – | – | – | < 100 | < 100 | < 1000 |
| CN1CCN(CCOc2cccc(C3CC3(NS(=O)(=O)c3ccc(-c4ccc(Cl)cc4)s3)C(=O)O)c2)CC1 (stereo not drawn) [Example 2-198] | < 1000 | < 1000 | ≥ 10000 | – | – | – |

Results, then the compound that gave them:

| IC50 [1, 4] [nM] | IC50 [2, 5] [nM] | IC50 [3, 6] [nM] | IC50 [1, 7] [nM] | IC50 [2, 8] [nM] | IC50 [3, 9] [nM] | Structure (SMILES) |
| --- | --- | --- | --- | --- | --- | --- |
| ≥ 10000 | ≥ 10000 | ≥ 10000 | – | – | – | CCCC(=O)c1ccc(S(=O)(=O)NC2(C(=O)O)CC2c2ccccc2)s1 (stereo not drawn) [Example 2-117] |
| – | – | – | < 1000 | < 1000 | ≥ 10000 | CCNC(=O)NCC1(c2ccccc2)CC1(NS(=O)(=O)c1ccc(-c2ccc(Cl)cc2)s1)C(=O)O (stereo not drawn) [Example 2-396] |
| < 1000 | ≥ 1000 | ≥ 10000 | – | – | – | O=C(O)C1(CS(=O)(=O)N2CCN(c3ccc(C(F)(F)F)cn3)CC2)CC1c1ccccc1 (stereo not drawn) [Example 2-185] |
| – | – | – | ≥ 1000 | ≥ 1000 | ≥ 1000 | COCc1cn2cc(S(=O)(=O)N[C@@]3(C(=O)O)C[C@]3(C)c3ccccc3)sc2n1 [Example 2-519] |
| ≥ 1000 | ≥ 10000 | ≥ 10000 | – | – | – | Nc1ccc(S(=O)(=O)NC2(C(=O)O)CC2c2ccccc2)s1 (stereo not drawn) [Example 2-165] |
| ≥ 1000 | ≥ 1000 | ≥ 1000 | – | – | – | CC1[C@H](c2ccccc2)[C@]1(NS(=O)(=O)N1CCN(C(=O)Nc2ccccc2)CC1)C(=O)O (stereo partly drawn) [Example 2-11, (1S,2R,3R)-2-methyl-3-phenyl-1-(4-phenylcarbamoyl-piperazine-1-sulfamoylamino)-cyclopropanecarboxylic acid] |
| – | – | – | < 1000 | < 100 | < 1000 | COCCCC1(c2ccccc2)CC1(NS(=O)(=O)c1ccc(-c2cc(C(F)(F)F)on2)s1)C(=O)O (stereo not drawn) [Example 2-588] |
| – | – | – | < 1000 | < 1000 | ≥ 10000 | CC1[C@H](c2ccccc2)[C@]1(NS(=O)(=O)c1ccc(-c2cn(C)cn2)s1)C(=O)O (stereo partly drawn) [Example 2-450] |
| < 100 | < 1000 | ≥ 10000 | – | – | – | O=C(O)C1(NS(=O)(=O)c2ccc(-c3ccc(Cl)cc3)s2)CC1c1ccc(Br)cc1 (stereo not drawn) [Example 2-203] |
| < 1000 | < 100 | ≥ 1000 | – | – | – | CC1(C)COC(c2ccccc2C2CC2(NS(=O)(=O)c2ccc(-c3ccc(Cl)cc3)s2)C(=O)O)=N1 (stereo not drawn) [Example 2-77] |
| – | – | – | < 100 | < 1000 | ≥ 1000 | O=C(O)C1(NS(=O)(=O)c2ccc(-c3cc(C(F)(F)F)on3)s2)CC1c1cccc(CO)c1 (stereo not drawn) [Example 2-283] |
| – | – | – | < 100 | < 100 | < 1000 | CC1[C@H](c2ccccc2)[C@]1(NS(=O)(=O)c1ccc(-c2cc3ccccc3[nH]2)s1)C(=O)O (stereo partly drawn) [Example 2-493] |
